One experiment concerns the target human TLR7 (Homo sapiens (Human), UniProt Q9NYK1). The experiment is described as follows: TLR7 inhibition reporter assay (HEK-Blue cells, SEAP reporter, gardiquimod stimulation). It counts as cell-based.
In another experiment the target is human TLR9 (Homo sapiens (Human), UniProt Q9NR96). The experiment can be described thus: TLR9 inhibition reporter assay (HEK-Blue cells, SEAP reporter, ODN2006 stimulation).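 Also: compounds tested over 0.05 nM to 50 µM, 22 h incubation, inhibition taken as SEAP signal drop from agonist plus DMSO wells toward a known inhibitor control.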 Background: Reporter assays use an easily measured gene product as a stand-in for the process of interest.
Chain of human TLR9 (Q9NR96 26-1032): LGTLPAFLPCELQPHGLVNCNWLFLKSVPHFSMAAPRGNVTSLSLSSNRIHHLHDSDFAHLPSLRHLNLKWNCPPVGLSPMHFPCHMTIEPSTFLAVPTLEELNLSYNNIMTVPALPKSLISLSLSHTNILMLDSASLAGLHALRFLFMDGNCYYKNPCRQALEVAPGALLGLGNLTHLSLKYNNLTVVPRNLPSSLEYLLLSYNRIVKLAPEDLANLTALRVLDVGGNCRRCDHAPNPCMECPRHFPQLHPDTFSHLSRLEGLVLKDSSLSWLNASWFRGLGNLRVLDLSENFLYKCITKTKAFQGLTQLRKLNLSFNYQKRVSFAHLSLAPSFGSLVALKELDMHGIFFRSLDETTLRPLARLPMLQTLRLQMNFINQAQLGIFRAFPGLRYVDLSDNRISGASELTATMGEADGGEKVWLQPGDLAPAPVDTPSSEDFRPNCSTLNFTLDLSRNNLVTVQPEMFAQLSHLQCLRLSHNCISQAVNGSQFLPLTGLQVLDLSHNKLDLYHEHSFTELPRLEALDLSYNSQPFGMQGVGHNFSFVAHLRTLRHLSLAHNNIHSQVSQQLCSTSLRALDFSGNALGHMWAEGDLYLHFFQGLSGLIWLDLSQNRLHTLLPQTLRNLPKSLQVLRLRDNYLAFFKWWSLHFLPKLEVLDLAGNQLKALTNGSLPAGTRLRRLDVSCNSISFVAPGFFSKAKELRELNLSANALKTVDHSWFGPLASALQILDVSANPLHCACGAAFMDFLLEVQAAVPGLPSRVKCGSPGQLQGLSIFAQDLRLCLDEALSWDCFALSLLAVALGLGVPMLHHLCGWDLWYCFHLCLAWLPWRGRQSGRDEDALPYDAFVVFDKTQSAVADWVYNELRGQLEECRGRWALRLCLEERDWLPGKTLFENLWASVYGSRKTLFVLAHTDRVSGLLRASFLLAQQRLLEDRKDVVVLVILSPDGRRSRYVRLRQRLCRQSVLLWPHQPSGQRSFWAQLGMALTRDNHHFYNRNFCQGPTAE
Setting [1] is: HEK-Blue cells overexpressing human TLR7, gardiquimod 7.5 μM.
The mark [2] stands for this setting: read-out: TLR9 IC50, HEK-Blue cells overexpressing human TLR9, ODN2006 5 nM.
The mark [3] stands for this setting: HEK-Blue cells, gardiquimod 7.5 μM.
Where [4] appears, read: read-out: TLR9 IC50, HEK-Blue cells, ODN2006 5 nM.

Here are results for 34 compounds from patent publication US10660877B2 (BRISTOL-MYERS SQUIBB COMPANY, priority 2016, dated 2020).

Read-outs that look alike come from different tables or passages of the source.

Usually IC50 stands for the point on the concentration scale where inhibition reaches its midpoint.

Chain of human TLR7 (Q9NYK1 27-1049): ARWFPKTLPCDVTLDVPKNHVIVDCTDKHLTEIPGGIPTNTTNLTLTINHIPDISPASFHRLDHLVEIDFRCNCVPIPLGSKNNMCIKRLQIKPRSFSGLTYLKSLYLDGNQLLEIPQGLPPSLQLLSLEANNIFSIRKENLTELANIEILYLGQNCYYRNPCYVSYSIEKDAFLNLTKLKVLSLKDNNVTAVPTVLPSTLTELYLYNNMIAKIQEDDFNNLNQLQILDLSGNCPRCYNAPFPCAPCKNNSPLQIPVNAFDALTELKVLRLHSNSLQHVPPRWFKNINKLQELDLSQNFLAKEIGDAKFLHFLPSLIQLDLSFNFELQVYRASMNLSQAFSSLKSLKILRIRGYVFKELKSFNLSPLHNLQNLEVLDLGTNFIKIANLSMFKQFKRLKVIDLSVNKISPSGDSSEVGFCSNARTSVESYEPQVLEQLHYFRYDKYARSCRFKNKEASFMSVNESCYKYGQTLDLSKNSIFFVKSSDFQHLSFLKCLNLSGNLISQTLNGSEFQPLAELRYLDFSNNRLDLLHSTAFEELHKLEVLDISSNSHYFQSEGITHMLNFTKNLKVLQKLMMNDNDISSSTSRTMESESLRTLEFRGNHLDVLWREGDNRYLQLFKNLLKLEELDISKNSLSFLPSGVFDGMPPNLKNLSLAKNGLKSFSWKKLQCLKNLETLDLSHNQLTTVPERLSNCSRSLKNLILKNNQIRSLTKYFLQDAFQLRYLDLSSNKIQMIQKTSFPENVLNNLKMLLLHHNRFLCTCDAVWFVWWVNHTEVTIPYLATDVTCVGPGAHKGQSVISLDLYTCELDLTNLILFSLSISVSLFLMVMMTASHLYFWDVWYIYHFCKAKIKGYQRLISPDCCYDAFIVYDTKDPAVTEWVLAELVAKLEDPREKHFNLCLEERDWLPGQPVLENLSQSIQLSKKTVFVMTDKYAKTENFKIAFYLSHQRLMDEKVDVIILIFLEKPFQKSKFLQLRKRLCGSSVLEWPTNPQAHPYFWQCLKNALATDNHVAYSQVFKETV

Consider `CC(C)c1c(-c2ccncc2)[nH]c2ccc(C3CCNCC3)cc12` [Example 38, 3-isopropyl-5-(piperidin-4-yl)-2-(pyridin-4-yl)-1H-indole], for which the IC50 stood at 38.4 nM against human TLR7 (setting [1]) and 2150 nM at human TLR9 (setting [2]).

As to `CCc1cc(-c2[nH]c3ccc(C4CCN(CCNC)CC4)cc3c2C)ccn1` [Example 748, 2-(4-(2-(2-ethylpyridin-4-yl)-3-methyl-1H-indol-5-yl)piperidin-1-yl)-N-methylethan-1-amine], the IC50 was 495 nM against human TLR7 (setting [1]) and 95 nM on human TLR9 (setting [2]).

As for `Cc1cc(-c2[nH]c3ccc(C4CCNCC4)c(F)c3c2C(C)C)cc(C)n1` [Example 77, 2-(2,6-dimethylpyridin-4-yl)-4-fluoro-3-isopropyl-5-(piperidin-4-yl)-1H-indole], the results for the IC50 against human TLR7 (setting [1]) and at human TLR9 (setting [2]) were 0.5 nM and 344 nM, respectively.

For `CCc1c(-c2ccncc2)[nH]c2ccc(C3CCN(Cc4cccn4C)CC3)cc12` [Example 805, 3-ethyl-5-(1-((1-methyl-1H-pyrrol-2-yl)methyl)piperidin-4-yl)-2-(pyridin-4-yl)-1H-indole], the IC50 at human TLR7 (setting [1]) is 610 nM; at human TLR9 (setting [2]) it was 1210 nM.

With `CC(C)c1c(-c2ccnc(C3CC3)c2)[nH]c2ccc(C3CCNCC3)cc12` [Example 483, 2-(2-cyclopropylpyridin-4-yl)-3-isopropyl-5-(piperidin-4-yl)-1H-indole], the figures for the IC50 against human TLR7 (setting [1]) and at human TLR9 (setting [2]) were 46.2 nM and 1440 nM, respectively.

Consider `CCc1c(-c2ccnc(OC(F)F)c2)[nH]c2ccc(C3CCN(C4CCN(CC(C)C)CC4)CC3)cc12` [Example 774, 2-(2-(difluoromethoxy)pyridin-4-yl)-3-ethyl-5-(1′-isobutyl-[1,4′-bipiperidin]-4-yl)-1H-indole], for which the figures for the IC50 at human TLR7 (setting [1]) and on human TLR9 (setting [2]) were 3700 nM and 663 nM, respectively.

Turning to `CNCCN1CCC(c2ccc3[nH]c(-c4ccnc(OC)c4)c(CC4CC4)c3c2)CC1` [Example 784, 2-(4-(3-(cyclopropylmethyl)-2-(2-methoxypyridin-4-yl)-1H-indol-5-yl)piperidin-1-yl)-N-methylethan-1-amine], the IC50 was found to be 94 nM against human TLR7 (setting [1]) and 685 nM at human TLR9 (setting [2]).

Take `COc1cc(-c2[nH]c3ccc(C4CCN(C5CCN(C)CC5)CC4)cc3c2C)ccn1` [Example 838, 2-(2-methoxypyridin-4-yl)-3-methyl-5-(1′-methyl-[1,4′-bipiperidin]-4-yl)-1H-indole]: the IC50 against human TLR7 (setting [3]) stood at 581 nM; on human TLR9 (setting [4]) it was 613 nM.

Take `Cc1cc(-c2[nH]c3cc(F)c(C4CCNCC4)cc3c2C(C)C)ccn1` [Example 73, 6-fluoro-3-isopropyl-2-(2-methylpyridin-4-yl)-5-(piperidin-4-yl)-1H-indole]: the IC50 is 4.4 nM against human TLR7 (setting [1]) and 4720 nM at human TLR9 (setting [2]).

`CC(C)c1c(-c2ccncc2CO)[nH]c2ccc(C3CCNCC3)cc12` [Example 19, (4-(3-isopropyl-5-(piperidin-4-yl)-1H-indol-2-yl)pyridin-3-yl)methanol]: the IC50 is 124 nM against human TLR7 (setting [1]) and 1860 nM at human TLR9 (setting [2]).

For the compound `CCc1c(-c2ccnc(C)c2)[nH]c2cc(F)c(C3CCNCC3)c(F)c12` [Example 83, 3-ethyl-4,6-difluoro-2-(2-methylpyridin-4-yl)-5-(piperidin-4-yl)-1H-indole], it took 11 nM to reach half-maximal inhibition on human TLR7 (setting [1]) (IC50).

Consider `CCN1CCC(N2CCC(c3ccc4[nH]c(-c5ccnc(OC)c5)c(C)c4c3)CC2)CC1` [Example 839, 5-(1′-ethyl-[1,4′-bipiperidin]-4-yl)-2-(2-methoxypyridin-4-yl)-3-methyl-1H-indole], for which the IC50 against human TLR7 (setting [3]) was 689 nM; at human TLR9 (setting [4]) it was 4440 nM.

Regarding `COc1cc(-c2[nH]c3ccc(C4CCNCC4)cc3c2C(C)C)ccn1` [Example 485, 3-isopropyl-2-(2-methoxypyridin-4-yl)-5-(piperidin-4-yl)-1H-indole], the IC50 was 11.8 nM against human TLR7 (setting [1]) and 3040 nM on human TLR9 (setting [2]).

`CCc1c(-c2ccnc(C)c2)[nH]c2ccc(C3CCNCC3)c(C)c12` [Example 82, 3-ethyl-4-methyl-2-(2-methylpyridin-4-yl)-5-(piperidin-4-yl)-1H-indole]: the IC50 against human TLR7 (setting [1]) came out at 7.3 nM.

As for `Cc1cc(-c2[nH]c3cc(C)c(C4CCNCC4)cc3c2C(C)C)ccn1` [Example 75, 3-isopropyl-6-methyl-2-(2-methylpyridin-4-yl)-5-(piperidin-4-yl)-1H-indole], the IC50 against human TLR7 (setting [1]) stood at 5 nM; on human TLR9 (setting [2]), 180 nM.

As to `CC(C)c1c(-c2ccnc(C(F)(F)F)c2)[nH]c2ccc(C3CCNCC3)cc12` [Example 6, 3-isopropyl-5-(piperidin-4-yl)-2-(2-(trifluoromethyl)pyridin-4-yl)-1H-indole], the IC50 was 28.2 nM against human TLR7 (setting [1]) and 1480 nM at human TLR9 (setting [2]).

Turning to `CCN1CCC(N2CCC(c3ccc4[nH]c(-c5ccncc5)c(C)c4c3)CC2)CC1` [Example 841, 5-(1′-ethyl-[1,4′-bipiperidin]-4-yl)-3-methyl-2-(pyridin-4-yl)-1H-indole], the values for the IC50 on human TLR7 (setting [3]) and on human TLR9 (setting [4]) were 492 nM and 87 nM, respectively.

Regarding `Cc1nc(C)c(C)c(-c2[nH]c3ccc(C4CCNCC4)cc3c2C(C)C)c1C` [Example 43, 3-isopropyl-5-(piperidin-4-yl)-2-(2,3,5,6-tetramethylpyridin-4-yl)-1H-indole], the IC50 is 278 nM at human TLR7 (setting [1]) and 546 nM at human TLR9 (setting [2]).

`CNCCN1CCC(c2ccc3[nH]c(-c4cc(OCCOC)ncc4F)c(C)c3c2)CC1` [Example 749, 2-(4-(2-(5-fluoro-2-(2-methoxyethoxy)pyridin-4-yl)-3-methyl-1H-indol-5-yl)piperidin-1-yl)-N-methylethan-1-amine]: the IC50 is 4830 nM against human TLR7 (setting [1]) and 640 nM on human TLR9 (setting [2]).

As to `CCc1c(-c2ccncc2)[nH]c2ccc(C3CCN(C4CCN(C)CC4)CC3)cc12` [Example 806, 3-ethyl-5-(1′-methyl-[1,4′-bipiperidin]-4-yl)-2-(pyridin-4-yl)-1H-indole], the 50% inhibitory concentration (IC50) on human TLR7 (setting [1]) amounted to 1210 nM; at human TLR9 (setting [2]), 365 nM.

On to `CNCCN1CCC(c2ccc3[nH]c(-c4ccncc4)c(C)c3c2)CC1` [Example 776, N-methyl-2-(4-(3-methyl-2-(pyridin-4-yl)-1H-indol-5-yl)piperidin-1-yl)ethan-1-amine], for which inhibition against human TLR7 (setting [1]) was half-maximal at 545 nM (IC50).

Consider `CCc1c(-c2ccnc(C)c2)[nH]c2ccc(C3CCNCC3)cc12` [Example 63, 3-ethyl-2-(2-methylpyridin-4-yl)-5-(piperidin-4-yl)-1H-indole], for which the concentration for half-maximal inhibition (IC50) is 27.7 nM against human TLR7 (setting [1]) and 329 nM at human TLR9 (setting [2]).

With `CCc1c(-c2ccnc(OC(F)F)c2)[nH]c2ccc(C3CCN(C4CCN(CC(C)C)CC4)CC3)cc12` [Example 775, 2-(2-(difluoromethoxy)pyridin-4-yl)-3-ethyl-5-(1′-isobutyl-[1,4′-bipiperidin]-4-yl)-1H-indole], the 50% inhibitory concentration (IC50) at human TLR7 (setting [1]) was 5660 nM; on human TLR9 (setting [2]) it was 379 nM.

On to `CCc1c(-c2ccnc(OC)c2)[nH]c2ccc(C3CCN(C4CCNCC4)CC3)cc12` [Example 787, 5-([1,4′-bipiperidin]-4-yl)-3-ethyl-2-(2-methoxypyridin-4-yl)-1H-indole], for which the IC50 was determined as 459 nM on human TLR7 (setting [1]) and 480 nM at human TLR9 (setting [2]).

On to `Cc1c(-c2ccncc2)[nH]c2ccc(C3CCN(C4CCN(C)CC4)CC3)cc12` [Example 842, 3-methyl-5-(1′-methyl-[1,4′-bipiperidin]-4-yl)-2-(pyridin-4-yl)-1H-indole], for which the half-maximal inhibitory concentration (IC50) turned out to be 388 nM at human TLR7 (setting [3]) and 93 nM at human TLR9 (setting [4]).

Take `CNCCN1CCC(c2ccc3[nH]c(-c4ccnc(OC)c4)c(C(C)C)c3c2)CC1` [Example 783, 2-(4-(3-isopropyl-2-(2-methoxypyridin-4-yl)-1H-indol-5-yl)piperidin-1-yl)-N-methylethan-1-amine]: the IC50 against human TLR7 (setting [1]) was determined as 55.1 nM; at human TLR9 (setting [2]) it was 1010 nM.

In the case of `COc1cc(-c2[nH]c3ccc(C4CCN(C5CCN(C(C)C)CC5)CC4)cc3c2C)ccn1` [Example 840, 5-(1′-isopropyl-[1,4′-bipiperidin]-4-yl)-2-(2-methoxypyridin-4-yl)-3-methyl-1H-indole], the IC50 was 466 nM against human TLR7 (setting [3]) and 379 nM on human TLR9 (setting [4]).

With `CCc1c(-c2ccncc2)[nH]c2ccc(C3CCN(CCNC)CC3)cc12` [Example 808, 2-(4-(3-ethyl-2-(pyridin-4-yl)-1H-indol-5-yl)piperidin-1-yl)-N-methylethan-1-amine], the IC50 is 679 nM at human TLR7 (setting [3]) and 610 nM at human TLR9 (setting [4]).

On to `CCNc1cc(-c2[nH]c3ccc(C4CCN(C5CCN(CC(C)C)CC5)CC4)cc3c2CC)ccn1` [Example 772, N-ethyl-4-(3-ethyl-5-(1′-isobutyl-[1,4′-bipiperidin]-4-yl)-1H-indol-2-yl)pyridin-2-amine], for which the IC50 is 9850 nM against human TLR7 (setting [1]) and 205 nM at human TLR9 (setting [2]).

`Cc1cc(-c2[nH]c3ccc(C4CCNCC4)cc3c2C(C)C)cc(C2CC2)n1` [Example 478, 2-(2-cyclopropyl-6-methylpyridin-4-yl)-3-isopropyl-5-(piperidin-4-yl)-1H-indole]: the IC50 amounted to 10.2 nM against human TLR7 (setting [1]) and 1330 nM at human TLR9 (setting [2]).

Consider `Cc1cc(-c2[nH]c3ccc(C4CCN(C(=O)c5ccncc5)CC4)cc3c2C(C)C)cc(C)n1` [Example 113], for which, on human TLR9 (setting [2]), the IC50 is 15700 nM.

As to `CCc1c(-c2ccnc(OC)c2)[nH]c2ccc(C3CCN(C4CCN(C5CC5)CC4)CC3)cc12` [Example 788, 5-(1′-cyclopropyl-[1,4′-bipiperidin]-4-yl)-3-ethyl-2-(2-methoxypyridin-4-yl)-1H-indole], the IC50 was found to be 356 nM on human TLR7 (setting [1]) and 611 nM at human TLR9 (setting [2]).

Consider `CNCCN1CCC(c2ccc3[nH]c(-c4ccnc(OC)c4)c(C)c3c2)CC1` [Example 777, 2-(4-(2-(2-methoxypyridin-4-yl)-3-methyl-1H-indol-5-yl)piperidin-1-yl)-N-methylethan-1-amine], for which 515 nM corresponded to half-maximal inhibition at human TLR7 (setting [1]) (IC50).

In the case of `CCc1c(-c2ccnc(NC)c2)[nH]c2ccc(C3CCN(C4CCN(CC(C)C)CC4)CC3)cc12` [Example 771, 4-(3-ethyl-5-(1′-isobutyl-[1,4′-bipiperidin]-4-yl)-1H-indol-2-yl)-N-methylpyridin-2-amine], the IC50 against human TLR7 (setting [1]) was 3370 nM; on human TLR9 (setting [2]), 169 nM.
